Data on one compound can be found in patent US9952208B2, “Means and methods for bioluminescence resonance energy transfer (BRET) analysis in a biological sample” (priority 2013, dated 2018).

The structures appear in SMILES notation.

This assay deals with DIG10.3. The assay can be described thus: Binding of tethered ligand to binding protein DIG10.3.

For `CC(=O)[C@H]1CC[C@H]2[C@@H]3CCC4=CC(=O)CC[C@]4(C)[C@H]3CC[C@]12C` [Progesterone, progesterone], the “binding to DIG10.3” value is “binds weakly”.
